From article PMC9669016, “First-in-human phase Ia study of the PI3Kα inhibitor CYH33 in patients with solid tumors” (Nature Communications, 2022)
Where “and” joins values, the source holds several entries; their conditions need not be identical. Equal entries are not always repeated.

Experiments:
PI3Kα and its mutants = tested on: PI3Kα and its mutants; parameters: method as in PMID 33109399; conditions: read-out: IC50 range; cited from earlier work
PI3Kβ, PI3Kδ, and PI3Kγ = tested on: PI3Kβ, PI3Kδ, and PI3Kγ; parameters: method as in PMID 33109399; conditions: read-out: IC50 range; cited from earlier work
advanced solid tumors = test: Radiological efficacy per RECIST 1.1 (ORR, DCR, CBR, PFS, DoR, best response); format: in vivo, human; parameters: key to Best response, individual patient: CR, complete response; PR, partial response; SD, stable disease; PD, progressive disease; Two best responses marked as NE represented SD lasting less than 5 weeks
Procedure: The primary endpoints of the phase Ia included (i) the type and frequency of treatment emergent adverse events (TEAEs) which were assessed per National Cancer Institute Common Terminology Criteria for Adverse Events (NCI-CTCAE) v4.03, laboratory results, electrocardiogram (ECG), cardiac imaging, physical examination findings (including vital signs, weight, and ECOG scores), (ii) number and proportion of subjects who occurred DLTs in each dose group during dose-escalation stage, (iii) the MTD, if the MTD was not observed, the RP2D will be determined through PK/PD data, safety and preliminary efficacy. The secondary endpoints included preliminary efficacy assessments based on ORR, PFS, DoR, DCR, and clinical benefit rate, assessed per RECIST 1.1,PK parameters for CYH33 and its metabolite I27, and changes in PD biomarkers in response to CYH33 treatment.
The analysis of the phase Ia study was pre-planned and reviewed by the SMC. The Kaplan–Meier method was used to summarize time-to-event endpoints. Response rates were summarized using a point estimate and 95% Clopper–Pearson confidence interval. The full analysis set (FAS) included all study patients who received at least one dose of study drug and was used for the analysis of baseline characteristics. The safety analysis set included all study patients who had received at least one dose of the study drug and was used for all safety analysis. The efficacy evaluable analysis set included patients who received at least one dose of CYH33 and had baseline tumor assessment data and at least one post-baseline tumor assessment. All statistical analyses were performed using SAS software v9.3 (Cary, North Carolina, USA). No data were excluded from the analyses. As a phase Ia, open label, dose-escalation and -expansion study, the study was not randomized, and the investigators were not blinded to allocation during trial and outcome assessment.

[1] = evaluable analysis set, 30 mg QD, n = 9
[2] = evaluable analysis set, 40 mg QD, n = 19
[3] = evaluable analysis set, 1–20 mg QD, n = 10
[4] = evaluable analysis set, all patients 1–60 mg QD, n = 42
[5] = one patient, gastric cancer (PIK3CA E542K), 30 mg
[6] = one patient, ovarian cancer (PIK3CA E545A), 40 mg

SMILES: COC(=O)Nc1cc(C(F)(F)F)c(-c2nc(N3CCOCC3)c3cc(CN4CCN(S(C)(=O)=O)CC4)cn3n2)cn1 [CYH33, methyl (5-(6-((4-(methylsulfonyl)piperazin-1-yl)methyl)−4-morpholinopyrrolo[2,1-f][1,2,4]triazin-2-yl)−4-(trifluoromethyl)pyridin-2-yl)carbamate]
- IC50 (PI3Kα and its mutants): 5 to 20 nM
- IC50 (PI3Kβ, PI3Kδ, and PI3Kγ): 43 to 611 nM
- Best percentage of change from baseline (sum of target lesion diameters), individual patient (advanced solid tumors; 1 mg, PIK3CA mutation Unknown): 28.8%
- Best response, individual patient (advanced solid tumors; 1 mg, PIK3CA mutation Unknown): PD
- Best percentage of change from baseline (sum of target lesion diameters), individual patient (advanced solid tumors; 5 mg, PIK3CA mutation Unknown): 38.8%
- Best response, individual patient (advanced solid tumors; 5 mg, PIK3CA mutation Unknown): PD
- Best percentage of change from baseline (sum of target lesion diameters), individual patient (advanced solid tumors; 10 mg, PIK3CA mutation Unknown): -4.6% and 20.8%
- Best response, individual patient (advanced solid tumors; 10 mg, PIK3CA mutation Unknown): SD and PD
- Best percentage of change from baseline (sum of target lesion diameters), individual patient (advanced solid tumors; 20 mg, PIK3CA E545K): -84.4% and 13.7% and 12.6% and -23.8%
- Best response, individual patient (advanced solid tumors; 20 mg, PIK3CA E545K): PR and PD and SD
- Best percentage of change from baseline (sum of target lesion diameters), individual patient (advanced solid tumors; 20 mg, PIK3CA mutation Unknown): -6.4% and 1.0%
- Best response, individual patient (advanced solid tumors; 20 mg, PIK3CA mutation Unknown): PD
- confirmed ORR (advanced solid tumors; 30 mg dose level): 11.1%
- Best percentage of change from baseline (sum of target lesion diameters), individual patient (advanced solid tumors; 30 mg, PIK3CA E542K): -22.2% and -39.5%
- Best response, individual patient (advanced solid tumors; 30 mg, PIK3CA E542K): SD
- Best percentage of change from baseline (sum of target lesion diameters), individual patient (advanced solid tumors; 30 mg, PIK3CA E545K): 9.7% and 23.8% and -61.8% and -16.5%
- Best response, individual patient (advanced solid tumors; 30 mg, PIK3CA E545K): PD and PR and SD
- Best percentage of change from baseline (sum of target lesion diameters), individual patient (advanced solid tumors; 30 mg, PIK3CA H1047L): -24.2%
- Best response, individual patient (advanced solid tumors; 30 mg, PIK3CA H1047L): SD
- Best percentage of change from baseline (sum of target lesion diameters), individual patient (advanced solid tumors; 30 mg, PIK3CA H1047R): 12.5%
- Best response, individual patient (advanced solid tumors; 30 mg, PIK3CA H1047R): SD
- Best percentage of change from baseline (sum of target lesion diameters), individual patient (advanced solid tumors; 30 mg, PIK3CA mutation Other): 10.0%
- Best response, individual patient (advanced solid tumors; 30 mg, PIK3CA mutation Other): SD
- confirmed ORR (advanced solid tumors; 40 mg dose level): 15.8%
- Best percentage of change from baseline (sum of target lesion diameters), individual patient (advanced solid tumors; 40 mg, PIK3CA E545A): -100.0%
- Best response, individual patient (advanced solid tumors; 40 mg, PIK3CA E545A): CR
- Best percentage of change from baseline (sum of target lesion diameters), individual patient (advanced solid tumors; 40 mg, PIK3CA E545K): -47.1% and 13.1%
- Best response, individual patient (advanced solid tumors; 40 mg, PIK3CA E545K): PR and PD
- Best percentage of change from baseline (sum of target lesion diameters), individual patient (advanced solid tumors; 40 mg, PIK3CA H1047R): -20.0%
- Best response, individual patient (advanced solid tumors; 40 mg, PIK3CA H1047R): SD
- Best percentage of change from baseline (sum of target lesion diameters), individual patient (advanced solid tumors; 40 mg, PIK3CA Q546K): -13.0%
- Best response, individual patient (advanced solid tumors; 40 mg, PIK3CA Q546K): SD
- Best percentage of change from baseline (sum of target lesion diameters), individual patient (advanced solid tumors; 40 mg, PIK3CA Q546R): -36.0%
- Best response, individual patient (advanced solid tumors; 40 mg, PIK3CA Q546R): SD
- Best percentage of change from baseline (sum of target lesion diameters), individual patient (advanced solid tumors; 40 mg, PIK3CA mutation Other): 8.1% and 2.2% and -29.0% and 12.8% and 7.7% and -28.9% and -13.9%
- Best response, individual patient (advanced solid tumors; 40 mg, PIK3CA mutation Other): PD and SD and NE
- Best percentage of change from baseline (sum of target lesion diameters), individual patient (advanced solid tumors; 40 mg, PIK3CA mutation Unknown): -66.7% and -13.8% and -13.1% and 28.3% and 0.0% and 38.8%
- Best response, individual patient (advanced solid tumors; 40 mg, PIK3CA mutation Unknown): PR and SD and PD and NE
- Best percentage of change from baseline (sum of target lesion diameters), individual patient (advanced solid tumors; 60 mg, PIK3CA E545K): 0.0%
- Best response, individual patient (advanced solid tumors; 60 mg, PIK3CA E545K): SD
- Best percentage of change from baseline (sum of target lesion diameters), individual patient (advanced solid tumors; 60 mg, PIK3CA mutation Other): 28.6%
- Best response, individual patient (advanced solid tumors; 60 mg, PIK3CA mutation Other): PD
- Best percentage of change from baseline (sum of target lesion diameters), individual patient (advanced solid tumors; 60 mg, PIK3CA mutation Unknown): -7.1% and 68.2%
- Best response, individual patient (advanced solid tumors; 60 mg, PIK3CA mutation Unknown): PD
- confirmed ORR (advanced solid tumors; 1–20 mg dose level): 10%
- patients with confirmed complete response (advanced solid tumors; 42 evaluable patients): 1
- patients with confirmed partial responses (PR) (advanced solid tumors; 42 evaluable patients): 4
- confirmed objective response rate (ORR; CR + PR) (advanced solid tumors; all evaluable patients (5/42)): 11.9%
- disease control rate (DCR; CR + PR + SD ≥ 6 weeks) (advanced solid tumors; all evaluable patients (15/42)): 35.7%
- confirmed response rate (advanced solid tumors; breast cancer with PIK3CA mutations (2/5)): 40%
- CBR (advanced solid tumors; [1]): 1 (11.1) n (%)
- CR (advanced solid tumors; [1]): 0 n (%)
- DCR (CR + PR + SD lasting ≥ 6 weeks) (advanced solid tumors; [1]): 1 (11.1) n (%)
- PR (advanced solid tumors; [1]): 1 (11.1) n (%)
- confirmed ORR (advanced solid tumors; [1]): 1 (11.1) n (%)
- mDoR (Kaplan–Meier) (advanced solid tumors; [1]): 80 days
- mPFS (Kaplan–Meier) (advanced solid tumors; [1]): 79 days
- CBR (advanced solid tumors; [2]): 3 (15.8) n (%)
- CR (advanced solid tumors; [2]): 1 (5.3) n (%)
- DCR (CR + PR + SD lasting ≥ 6 weeks) (advanced solid tumors; [2]): 10 (52.6) n (%)
- PR (advanced solid tumors; [2]): 2 (10.5) n (%)
- confirmed ORR (advanced solid tumors; [2]): 3 (15.8) n (%)
- mDoR (Kaplan–Meier) (advanced solid tumors; [2]): 152 days
- mPFS (Kaplan–Meier) (advanced solid tumors; [2]): 121 days
- CBR (advanced solid tumors; [3]): 2 (20.0) n (%)
- CR (advanced solid tumors; [3]): 0 n (%)
- DCR (CR + PR + SD lasting ≥ 6 weeks) (advanced solid tumors; [3]): 3 (30.0) n (%)
- PR (advanced solid tumors; [3]): 1 (10.0) n (%)
- confirmed ORR (advanced solid tumors; [3]): 1 (10.0) n (%)
- mDoR (Kaplan–Meier) (advanced solid tumors; [3]): 77 days
- mPFS (Kaplan–Meier) (advanced solid tumors; [3]): 47 days
- CBR (advanced solid tumors; [4]): 6 (14.3) n (%)
- CR (advanced solid tumors; [4]): 1 (2.4) n (%)
- DCR (CR + PR + SD lasting ≥ 6 weeks) (advanced solid tumors; [4]): 15 (35.7) n (%)
- PR (advanced solid tumors; [4]): 4 (9.5) n (%)
- confirmed ORR (advanced solid tumors; [4]): 5 (11.9) n (%)
- mDoR (Kaplan–Meier) (advanced solid tumors; [4]): 80 days
- mPFS (Kaplan–Meier) (advanced solid tumors; [4]): 79 days
- confirmed objective response rate (advanced solid tumors; evaluable patients harboring PIK3CA mutations (4/28)): 14.3%
- DCR (advanced solid tumors; evaluable patients with PIK3CA mutations (13/28)): 46.4%
- DoR (advanced solid tumors; one patient, breast cancer (Luminal B, HER2-, PIK3CA E545K), 40 mg): 22.0 weeks
- time of progressive disease (advanced solid tumors; [5]): 11 week
- time of treatment to PR (advanced solid tumors; [5]): 6 weeks
- DoR (longest) (advanced solid tumors; [6]): 15.2 months
- time of treatment to CR (advanced solid tumors; [6]): 29.3 weeks
- time of treatment to PR (advanced solid tumors; [6]): 5.3 weeks
- confirmed response rate (advanced solid tumors; ovarian cancer with PIK3CA mutations (2/5)): 40%
